Experimental data taken from US7074789B2, “Kinase inhibitors” (Amgen Inc., priority 1999, dated 2006).
pIC50: −log10 of the molar value.

Legend:
Assay type in all cases: biochemical
Kdr = molecular target: T1, Kdr (Homo sapiens, UniProt P35968); assay: Kinase inhibition assay (33P transfer), Kdr; details: Table 3; for pIC50: read-out: KDR-1
T1 construct: Kinases are expressed as either kinase domains or full length constructs; made in house
Procedure, shortened: (§1)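 GST/His-tagged kinase (domain or full length; E. coli or baculovirus) + [33P]ATP on plates coated with poly(Glu,Tyr) 4:1 or poly(Arg,Ser) 3:1; incubate, wash 0.5% H3PO4, add scintillant, count.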

AKT = molecular target: T2, AKT (Homo sapiens, UniProt Q9Y243); assay: Kinase inhibition assay (33P transfer), AKT; details: Table 2, kinase inhibition class; for pIC50: read-out: AKT3-1
T2 construct: Kinases are expressed as either kinase domains or full length constructs; made in house
T2 sequence (Q9Y243 whole entry, the tested form may be a part): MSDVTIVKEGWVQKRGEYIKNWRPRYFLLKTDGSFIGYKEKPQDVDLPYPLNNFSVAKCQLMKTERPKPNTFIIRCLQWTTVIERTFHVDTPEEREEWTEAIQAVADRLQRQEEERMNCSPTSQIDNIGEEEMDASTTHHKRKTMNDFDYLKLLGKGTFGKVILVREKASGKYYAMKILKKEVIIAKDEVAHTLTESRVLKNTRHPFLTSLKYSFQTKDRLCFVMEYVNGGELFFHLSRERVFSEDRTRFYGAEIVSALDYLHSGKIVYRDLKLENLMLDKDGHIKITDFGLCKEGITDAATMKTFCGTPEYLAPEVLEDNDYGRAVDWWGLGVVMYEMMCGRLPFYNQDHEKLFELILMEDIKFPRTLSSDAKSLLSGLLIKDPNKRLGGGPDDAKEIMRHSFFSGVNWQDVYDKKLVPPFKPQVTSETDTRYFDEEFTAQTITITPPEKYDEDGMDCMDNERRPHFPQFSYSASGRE
Procedure, shortened: as §1

Lyn = molecular target: T3, Lyn (Homo sapiens, UniProt P07948); assay: Kinase inhibition assay (33P transfer), Lyn; details: Table 6, Lyn-1 kinase inhibition class
T3 construct: Kinases are expressed as either kinase domains or full length constructs; made in house
T3 sequence (P07948 whole entry, species assumed, the tested form may be a part): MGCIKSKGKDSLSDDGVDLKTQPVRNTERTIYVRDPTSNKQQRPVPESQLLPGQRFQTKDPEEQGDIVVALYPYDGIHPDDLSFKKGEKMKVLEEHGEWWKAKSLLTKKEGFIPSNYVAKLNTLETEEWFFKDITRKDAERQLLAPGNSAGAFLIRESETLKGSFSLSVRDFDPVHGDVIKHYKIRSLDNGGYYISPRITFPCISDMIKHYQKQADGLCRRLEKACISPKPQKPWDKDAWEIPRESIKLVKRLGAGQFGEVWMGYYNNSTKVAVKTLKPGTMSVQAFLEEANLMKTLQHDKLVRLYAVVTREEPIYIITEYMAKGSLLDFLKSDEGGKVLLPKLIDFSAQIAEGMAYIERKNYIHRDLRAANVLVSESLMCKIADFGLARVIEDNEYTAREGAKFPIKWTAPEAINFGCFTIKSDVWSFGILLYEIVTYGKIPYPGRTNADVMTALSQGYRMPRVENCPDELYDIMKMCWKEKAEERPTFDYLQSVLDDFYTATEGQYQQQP
Procedure, shortened: (§2)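 Using immobilised substrate copolymers (poly(Glu,Tyr) 4:1; poly(Arg,Ser) 3:1) and [33P]ATP, purified fusion kinases were allowed to react; plates were then rinsed in 0.5% phosphoric acid and counted in a scintillation detector. Half-maximal inhibition of label transfer defines IC50.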

Hck-1 = molecular target: T4, Hck-1 (Homo sapiens, UniProt P08631); assay: Kinase inhibition assay (33P transfer), Hck; details: Table 6, Hck-1 kinase inhibition class
T4 construct: Kinases are expressed as either kinase domains or full length constructs; made in house

EGFR = molecular target: T5, EGFR (Homo sapiens, UniProt P00533); assay: Kinase inhibition assay (33P transfer), EGFR; details: Table 2, kinase inhibition class; for pIC50: read-out: EGFR-1
T5 construct: Kinases are expressed as either kinase domains or full length constructs; made in house
T5 sequence (P00533 25-1210, species assumed): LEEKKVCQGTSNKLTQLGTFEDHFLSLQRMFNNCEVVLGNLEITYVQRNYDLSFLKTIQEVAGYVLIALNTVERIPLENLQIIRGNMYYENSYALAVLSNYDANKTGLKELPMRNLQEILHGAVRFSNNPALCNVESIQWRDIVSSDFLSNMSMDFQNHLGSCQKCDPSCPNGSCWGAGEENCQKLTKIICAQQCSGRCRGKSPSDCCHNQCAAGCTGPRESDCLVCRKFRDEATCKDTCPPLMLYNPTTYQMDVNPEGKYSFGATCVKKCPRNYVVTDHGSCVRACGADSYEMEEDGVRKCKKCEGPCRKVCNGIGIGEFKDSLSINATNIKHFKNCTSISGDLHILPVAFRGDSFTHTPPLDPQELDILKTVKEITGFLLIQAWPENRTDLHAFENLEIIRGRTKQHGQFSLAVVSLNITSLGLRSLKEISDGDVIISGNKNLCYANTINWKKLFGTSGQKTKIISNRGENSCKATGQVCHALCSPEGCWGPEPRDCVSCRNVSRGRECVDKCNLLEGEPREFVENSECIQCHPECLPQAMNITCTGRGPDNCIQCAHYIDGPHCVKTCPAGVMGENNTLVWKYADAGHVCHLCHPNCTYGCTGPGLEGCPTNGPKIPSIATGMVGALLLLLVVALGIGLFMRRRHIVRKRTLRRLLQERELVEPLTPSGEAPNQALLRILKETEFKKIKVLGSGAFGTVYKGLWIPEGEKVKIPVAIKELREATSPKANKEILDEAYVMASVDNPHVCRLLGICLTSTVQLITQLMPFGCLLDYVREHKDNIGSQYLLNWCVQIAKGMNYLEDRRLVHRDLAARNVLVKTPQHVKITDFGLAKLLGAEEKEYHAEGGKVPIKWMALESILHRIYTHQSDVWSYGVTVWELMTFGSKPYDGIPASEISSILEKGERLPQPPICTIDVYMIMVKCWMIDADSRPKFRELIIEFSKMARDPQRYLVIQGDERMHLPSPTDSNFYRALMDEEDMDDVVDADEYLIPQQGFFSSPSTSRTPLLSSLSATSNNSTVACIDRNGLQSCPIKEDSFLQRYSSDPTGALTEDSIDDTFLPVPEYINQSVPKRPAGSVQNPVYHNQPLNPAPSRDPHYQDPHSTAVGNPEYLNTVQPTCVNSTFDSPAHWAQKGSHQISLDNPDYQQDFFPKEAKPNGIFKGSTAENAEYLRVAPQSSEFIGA
Procedure, shortened: as §2

Ret-1 = molecular target: T6, Ret-1 (Homo sapiens, UniProt P07949); assay: Kinase inhibition assay (33P transfer), Ret; details: Table 6, Ret-1 kinase inhibition class
T6 construct: Kinases are expressed as either kinase domains or full length constructs; made in house

Fyn = molecular target: T7, Fyn (Homo sapiens, UniProt P06241); assay: Kinase inhibition assay (33P transfer), Fyn; details: for pIC50: read-out: Fyn-1
T7 construct: Kinases are expressed as either kinase domains or full length constructs; made in house
T7 sequence (P06241 whole entry, species assumed, the tested form may be a part): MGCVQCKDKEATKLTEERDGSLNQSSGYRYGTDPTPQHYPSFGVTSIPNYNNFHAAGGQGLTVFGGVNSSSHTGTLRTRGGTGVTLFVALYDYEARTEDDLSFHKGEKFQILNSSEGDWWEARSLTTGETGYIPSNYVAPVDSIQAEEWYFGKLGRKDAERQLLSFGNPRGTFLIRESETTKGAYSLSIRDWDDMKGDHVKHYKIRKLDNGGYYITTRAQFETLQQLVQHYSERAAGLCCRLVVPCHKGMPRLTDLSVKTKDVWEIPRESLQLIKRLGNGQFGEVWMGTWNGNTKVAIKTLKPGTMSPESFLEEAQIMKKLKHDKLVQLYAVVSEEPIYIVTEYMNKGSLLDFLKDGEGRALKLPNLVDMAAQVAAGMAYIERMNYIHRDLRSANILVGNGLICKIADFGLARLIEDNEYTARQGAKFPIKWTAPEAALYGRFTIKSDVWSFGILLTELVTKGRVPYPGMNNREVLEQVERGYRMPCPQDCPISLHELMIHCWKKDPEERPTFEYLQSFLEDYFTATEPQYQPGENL
Procedure, shortened: as §2

Lck = molecular target: T8, Lck (Homo sapiens, UniProt P06239); assay: Kinase inhibition assay (33P transfer), Lck; details: Table 3; for pIC50: read-out: Lck-1
T8 construct: Kinases are expressed as either kinase domains or full length constructs; made in house
T8 sequence (P06239 whole entry, species assumed, the tested form may be a part): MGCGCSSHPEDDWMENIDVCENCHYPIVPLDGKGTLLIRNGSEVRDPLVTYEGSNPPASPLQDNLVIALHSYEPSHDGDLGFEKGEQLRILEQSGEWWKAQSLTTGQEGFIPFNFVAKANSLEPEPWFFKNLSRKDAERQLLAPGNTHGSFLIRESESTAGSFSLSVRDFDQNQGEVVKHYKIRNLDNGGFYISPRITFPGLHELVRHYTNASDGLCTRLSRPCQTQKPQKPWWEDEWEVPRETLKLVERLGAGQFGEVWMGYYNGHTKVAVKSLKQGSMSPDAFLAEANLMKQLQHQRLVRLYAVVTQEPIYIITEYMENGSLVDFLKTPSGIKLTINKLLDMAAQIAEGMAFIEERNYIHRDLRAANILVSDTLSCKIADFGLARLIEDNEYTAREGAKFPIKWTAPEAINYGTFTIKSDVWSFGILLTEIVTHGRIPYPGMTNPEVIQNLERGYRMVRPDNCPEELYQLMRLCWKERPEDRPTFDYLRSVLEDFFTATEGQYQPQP
Procedure, shortened: as §1

Zap-70 = molecular target: T9, Zap-70 (Homo sapiens, UniProt P43403); assay: Kinase inhibition assay (33P transfer), Zap-70; details: Table 3; for pIC50: read-out: Zap-1
T9 construct: Kinases are expressed as either kinase domains or full length constructs; made in house
T9 sequence (P43403 1-619): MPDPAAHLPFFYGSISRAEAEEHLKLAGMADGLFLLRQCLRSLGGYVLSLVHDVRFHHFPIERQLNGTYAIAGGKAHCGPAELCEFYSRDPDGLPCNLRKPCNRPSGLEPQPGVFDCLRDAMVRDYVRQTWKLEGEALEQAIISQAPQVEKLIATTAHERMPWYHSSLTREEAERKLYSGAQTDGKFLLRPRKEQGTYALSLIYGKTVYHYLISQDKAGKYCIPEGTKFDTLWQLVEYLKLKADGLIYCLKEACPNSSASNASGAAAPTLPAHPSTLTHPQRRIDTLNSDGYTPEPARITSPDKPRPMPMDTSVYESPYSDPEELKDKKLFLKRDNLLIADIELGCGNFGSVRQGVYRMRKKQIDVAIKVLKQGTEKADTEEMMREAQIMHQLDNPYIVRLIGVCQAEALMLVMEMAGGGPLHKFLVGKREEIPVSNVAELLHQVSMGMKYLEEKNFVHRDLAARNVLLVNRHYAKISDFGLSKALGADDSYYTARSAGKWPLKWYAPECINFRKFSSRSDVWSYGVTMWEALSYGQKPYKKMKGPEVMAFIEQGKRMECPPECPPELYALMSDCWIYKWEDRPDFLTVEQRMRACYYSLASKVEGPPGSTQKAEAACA
Procedure, shortened: as §1

Src = molecular target: T10, Src (Homo sapiens, UniProt P12931); assay: Kinase inhibition assay (33P transfer), Src; details: Table 6, Src-1 kinase inhibition class
T10 construct: Kinases are expressed as either kinase domains or full length constructs; made in house
Procedure, shortened: as §2

ErbB2 = molecular target: T11, ErbB2 (Homo sapiens, UniProt P04626); assay: Kinase inhibition assay (33P transfer), ErbB2; details: read-out: ErbB2-2
T11 construct: Kinases are expressed as either kinase domains or full length constructs; made in house
Procedure, shortened: as §2

T1 sequence (P35968 20-1356, species assumed): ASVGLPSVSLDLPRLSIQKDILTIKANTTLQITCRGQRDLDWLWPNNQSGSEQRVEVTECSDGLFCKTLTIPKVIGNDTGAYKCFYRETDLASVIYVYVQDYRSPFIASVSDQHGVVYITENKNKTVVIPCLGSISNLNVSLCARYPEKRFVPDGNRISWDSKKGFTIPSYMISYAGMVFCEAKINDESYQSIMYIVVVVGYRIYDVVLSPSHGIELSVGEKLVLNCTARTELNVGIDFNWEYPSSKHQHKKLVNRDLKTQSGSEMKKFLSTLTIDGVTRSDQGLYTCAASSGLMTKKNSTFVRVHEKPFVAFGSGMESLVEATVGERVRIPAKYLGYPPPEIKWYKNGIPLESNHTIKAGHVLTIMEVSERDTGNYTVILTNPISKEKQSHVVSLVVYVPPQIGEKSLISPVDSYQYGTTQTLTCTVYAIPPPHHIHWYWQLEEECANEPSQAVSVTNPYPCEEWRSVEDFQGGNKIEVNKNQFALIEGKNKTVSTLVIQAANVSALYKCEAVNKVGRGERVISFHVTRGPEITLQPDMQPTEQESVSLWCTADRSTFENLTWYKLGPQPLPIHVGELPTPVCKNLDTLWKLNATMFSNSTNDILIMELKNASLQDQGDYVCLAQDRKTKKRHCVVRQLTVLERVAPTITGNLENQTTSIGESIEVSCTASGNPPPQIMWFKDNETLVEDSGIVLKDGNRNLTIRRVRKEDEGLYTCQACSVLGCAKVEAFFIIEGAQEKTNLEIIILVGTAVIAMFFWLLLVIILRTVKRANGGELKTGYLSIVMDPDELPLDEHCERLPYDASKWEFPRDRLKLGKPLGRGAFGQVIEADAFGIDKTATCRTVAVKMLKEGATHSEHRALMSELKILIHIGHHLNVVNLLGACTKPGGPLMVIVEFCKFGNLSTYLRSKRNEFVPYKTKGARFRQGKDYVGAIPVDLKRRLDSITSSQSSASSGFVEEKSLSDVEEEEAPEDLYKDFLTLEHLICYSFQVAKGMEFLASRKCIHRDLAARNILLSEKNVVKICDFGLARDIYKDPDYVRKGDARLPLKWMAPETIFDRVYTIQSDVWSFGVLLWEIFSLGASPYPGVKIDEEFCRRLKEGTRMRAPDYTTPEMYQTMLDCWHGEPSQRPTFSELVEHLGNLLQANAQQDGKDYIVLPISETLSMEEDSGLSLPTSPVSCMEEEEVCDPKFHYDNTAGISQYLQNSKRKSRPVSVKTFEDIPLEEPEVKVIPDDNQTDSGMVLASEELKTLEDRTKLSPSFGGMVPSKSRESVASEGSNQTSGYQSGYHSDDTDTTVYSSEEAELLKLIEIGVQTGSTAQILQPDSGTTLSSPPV

Structure (SMILES) | pIC50 (Kdr) | pIC50 (AKT) | pIC50 (Lyn) | pIC50 (Hck-1) | pIC50 (EGFR) | pIC50 (Ret-1) | pIC50 (Fyn) | pIC50 (Lck) | pIC50 (Zap-70) | pIC50 (Src) | pIC50 (ErbB2) | KDR-1 (Kdr) | AKT3-1 (AKT) | Lyn-1 (Lyn) | Hck-1 (Hck-1) | EGFR-1 (EGFR) | Fyn-1 (Fyn) | Lck-1 (Lck) | Zap-1 (Zap-70) | Src-1 (Src)
COc1ccc(Nc2ncnc(Nc3ccc(N(C)C)cc3)n2)cc1OC [Compound 114] | > 5.96 | < 4.91 | – | – | < 4.91 | 5.18 to 5.96 | – | < 4.91 | < 4.91 | – | – | – | – | – | – | – | – | – | – | –
COc1ccc(N(C)c2ncnc(Nc3cc(OC)c(OC)c(OC)c3)n2)cc1 [Compound 106] | > 6.00 | < 4.95 | – | – | 5.22 to 6.00 | 5.22 to 6.00 | – | 5.06 to 5.22 | < 4.95 | – | – | – | – | – | – | – | – | – | – | –
COc1ccc(Nc2ncnc(Nc3cccc(C)c3)n2)cc1OC [Compound 108] | 4.98 to 5.15 | < 4.87 | > 5.93 | < 4.87 | > 5.93 | – | 5.15 to 5.93 | 4.87 to 4.98 | < 4.87 | 5.15 to 5.93 | – | – | – | – | – | – | – | – | – | –
COc1ccc(Nc2ncnc(Nc3cc(OC)c(OC)c(OC)c3)n2)cn1 [Compound 28] | – | – | – | – | – | – | – | – | – | – | – | A (A<0.4 ug/mL) | E (E>4.5 ug/mL) | B (B>0.4 and <2.4 ug/mL) | E (E>4.5 ug/mL) | B (B>0.4 and <2.4 ug/mL) | B (B>0.4 and <2.4 ug/mL) | B (B>0.4 and <2.4 ug/mL) | E (E>4.5 ug/mL) | B (B>0.4 and <2.4 ug/mL)
Cc1cccc(Nc2ncnc(Nc3cccc(Br)c3)n2)c1 [Compound 109] | 5.01 to 5.17 | < 4.90 | – | – | > 5.95 | – | – | < 4.90 | 5.01 to 5.17 | – | 5.01 to 5.17 | – | – | – | – | – | – | – | – | –

Continued, in another order:

pIC50 (Kdr) | pIC50 (AKT) | pIC50 (Lyn) | pIC50 (Hck-1) | pIC50 (EGFR) | pIC50 (Ret-1) | pIC50 (Fyn) | pIC50 (Lck) | pIC50 (Zap-70) | pIC50 (Src) | pIC50 (ErbB2) | Structure (SMILES) | KDR-1 (Kdr) | AKT3-1 (AKT) | Lyn-1 (Lyn) | Hck-1 (Hck-1) | EGFR-1 (EGFR) | Fyn-1 (Fyn) | Lck-1 (Lck) | Zap-1 (Zap-70) | Src-1 (Src)
> 5.98 | < 4.93 | 5.20 to 5.98 | < 4.93 | < 4.93 | < 4.93 | 5.20 to 5.98 | 5.20 to 5.98 | < 4.93 | 5.20 to 5.98 | – | COc1cc(Nc2ncnc(N3CCc4ccccc43)n2)cc(OC)c1OC [Compound 184] | – | – | – | – | – | – | – | – | –
5.24 to 6.02 | < 4.97 | – | – | > 6.02 | 5.07 to 5.24 | – | 5.24 to 6.02 | 5.07 to 5.24 | – | – | COc1ccc(Nc2ncnc(Nc3ccc(Oc4ccccc4)cc3)n2)cc1OC [Compound 929] | – | – | – | – | – | – | – | – | –
5.29 to 6.07 | < 5.02 | > 6.07 | 5.12 to 5.29 | > 6.07 | – | > 6.07 | 5.29 to 6.07 | < 5.02 | > 6.07 | – | COc1cc(Nc2ncnc(Nc3ccc(Br)c(Cl)c3)n2)cc(OC)c1OC [Compound 936] | – | – | – | – | – | – | – | – | –
> 5.98 | < 4.93 | > 5.98 | 5.04 to 5.20 | > 5.98 | – | > 5.98 | 5.20 to 5.98 | < 4.93 | > 5.98 | – | COc1cc(Nc2ncnc(Nc3ccc(C)c(N)c3)n2)cc(OC)c1OC [Compound 935] | – | – | – | – | – | – | – | – | –
> 6.03 | < 4.98 | > 6.03 | < 4.98 | > 6.03 | – | 5.25 to 6.03 | 5.25 to 6.03 | < 4.98 | 5.25 to 6.03 | – | C=CCN(c1ccc(Cl)cc1)c1ncnc(Nc2cc(OC)c(OC)c(OC)c2)n1 [Compound 972] | – | – | – | – | – | – | – | – | –
5.24 to 6.02 | < 4.96 | < 4.96 | < 4.96 | 5.07 to 5.24 | – | < 4.96 | 4.96 to 5.07 | < 4.96 | > 6.02 | – | COc1cc(Nc2ncnc(Nc3cc(OC)c(OC)c(OC)c3)n2)cc(OC)n1 [Compound 253] | – | – | – | – | – | – | – | – | –
5.28 to 6.06 | 5.28 to 6.06 | < 5.01 | < 5.01 | 5.28 to 6.06 | – | < 5.01 | < 5.01 | 5.12 to 5.28 | < 5.01 | – | CCOc1ccc(Nc2ncnc(Nc3ccc(OCc4ccccc4)cc3)n2)cc1OCC [Compound 170] | – | – | – | – | – | – | – | – | –
